# Measurements from patent US20260193264A1, “BENZOYPARAZINE PYRAZINES AND THEIR USES” (FOGHORN THERAPEUTICS INC., priority 2022, published 2026).
# Legend:
# [1] = target: T1, HiBiT-BRM fusion protein in stable HeLa cell line (Homo sapiens, UniProt P51531); test: HiBiT-BRM cell-based degradation assay (Nano-Glo HiBiT Lytic Detection, 24 h); set-up: DC50: scale not given here; conditions: HeLa HiBiT-BRM cells; for DC50: read-out: BRM HiBit Degradation IC50; for BRM HiBit Degradation Maximum (%): top dose 30 μM
# T1 construct: expressed in transfected cells
# Procedure, shortened: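 Luminescence from HiBiT/LgBiT complementation after lysis reports remaining HiBiT-BRM in stable HeLa cells exposed to compound for 24 h. Dosing used 3-fold serial dilutions, 10 points, 30 μM top final concentration. DMSO and a 2 μM BRM/BRG1 degrader standard defined 0% and 100% degradation.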
# [2] = target: T2, HiBit-BRG1 fusion protein in stable HeLa cell line expressing HiBit-BRG1 and LgBit (Homo sapiens, UniProt P51532); test: HiBiT-BRG1 cell-based degradation assay (Nano-Glo HiBiT, 24 h); conditions: HeLa HiBit-BRG1/LgBit cells; for Dmax / BRG1 HiBit Degradation Maximum (%): top dose 30 μM; for Dmax: read-out: BRG1 HiBit Degradation Maximum (%); for DC50: read-out: BRMG1 HiBit Degradation IC50
# T2 construct: expressed in transfected cells
# Procedure, shortened: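 Stable HeLa line co-expressing HiBiT-BRG1 and LgBiT, compound-treated 24 h; luminescence read after Nano-Glo HiBiT lytic reagent. % degradation normalised between DMSO (high control) and 2 μM reference BRM/BRG1 degrader (low control).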
# T1 sequence (P51531 whole entry, the tested form may be a part): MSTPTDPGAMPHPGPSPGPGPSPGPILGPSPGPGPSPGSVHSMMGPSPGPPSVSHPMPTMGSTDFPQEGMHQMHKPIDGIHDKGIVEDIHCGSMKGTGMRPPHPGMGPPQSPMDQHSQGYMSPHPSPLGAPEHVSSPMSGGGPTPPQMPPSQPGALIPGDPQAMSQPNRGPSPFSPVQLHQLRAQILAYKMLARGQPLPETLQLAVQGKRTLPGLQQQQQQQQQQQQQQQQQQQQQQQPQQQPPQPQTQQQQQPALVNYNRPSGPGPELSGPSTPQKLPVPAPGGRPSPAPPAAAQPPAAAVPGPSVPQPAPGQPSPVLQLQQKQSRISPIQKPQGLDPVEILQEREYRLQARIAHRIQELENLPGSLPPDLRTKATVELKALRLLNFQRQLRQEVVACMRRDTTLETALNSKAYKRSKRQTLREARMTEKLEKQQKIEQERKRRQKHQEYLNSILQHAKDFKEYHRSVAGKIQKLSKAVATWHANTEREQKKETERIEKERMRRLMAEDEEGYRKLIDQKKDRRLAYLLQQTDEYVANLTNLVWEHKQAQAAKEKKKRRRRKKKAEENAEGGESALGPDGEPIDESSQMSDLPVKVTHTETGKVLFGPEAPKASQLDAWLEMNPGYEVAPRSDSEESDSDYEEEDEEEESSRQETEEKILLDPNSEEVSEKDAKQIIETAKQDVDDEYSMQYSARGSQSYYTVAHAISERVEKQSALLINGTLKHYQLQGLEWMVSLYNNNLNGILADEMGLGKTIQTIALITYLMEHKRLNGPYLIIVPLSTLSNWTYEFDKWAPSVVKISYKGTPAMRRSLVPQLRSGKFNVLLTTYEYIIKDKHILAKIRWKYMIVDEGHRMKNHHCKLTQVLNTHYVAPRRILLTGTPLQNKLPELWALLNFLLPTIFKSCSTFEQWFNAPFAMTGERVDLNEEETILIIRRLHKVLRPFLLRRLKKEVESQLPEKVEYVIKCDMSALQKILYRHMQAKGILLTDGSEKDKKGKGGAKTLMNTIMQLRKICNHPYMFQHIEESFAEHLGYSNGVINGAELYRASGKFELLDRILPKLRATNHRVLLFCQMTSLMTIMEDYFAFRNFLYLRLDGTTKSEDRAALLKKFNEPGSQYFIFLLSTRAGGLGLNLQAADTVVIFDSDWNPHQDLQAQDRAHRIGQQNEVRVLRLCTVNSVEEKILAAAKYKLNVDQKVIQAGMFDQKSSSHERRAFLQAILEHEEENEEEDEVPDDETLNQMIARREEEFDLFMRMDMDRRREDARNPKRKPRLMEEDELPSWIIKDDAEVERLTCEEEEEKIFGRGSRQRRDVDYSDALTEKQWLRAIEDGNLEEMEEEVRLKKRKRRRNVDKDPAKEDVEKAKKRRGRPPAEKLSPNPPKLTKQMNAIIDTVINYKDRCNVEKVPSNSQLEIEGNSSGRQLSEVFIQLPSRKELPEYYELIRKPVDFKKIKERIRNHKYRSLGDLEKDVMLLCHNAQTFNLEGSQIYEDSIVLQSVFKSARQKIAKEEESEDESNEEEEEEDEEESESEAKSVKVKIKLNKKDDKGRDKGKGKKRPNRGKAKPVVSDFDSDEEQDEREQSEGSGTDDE
# T2 sequence (P51532 whole entry, the tested form may be a part): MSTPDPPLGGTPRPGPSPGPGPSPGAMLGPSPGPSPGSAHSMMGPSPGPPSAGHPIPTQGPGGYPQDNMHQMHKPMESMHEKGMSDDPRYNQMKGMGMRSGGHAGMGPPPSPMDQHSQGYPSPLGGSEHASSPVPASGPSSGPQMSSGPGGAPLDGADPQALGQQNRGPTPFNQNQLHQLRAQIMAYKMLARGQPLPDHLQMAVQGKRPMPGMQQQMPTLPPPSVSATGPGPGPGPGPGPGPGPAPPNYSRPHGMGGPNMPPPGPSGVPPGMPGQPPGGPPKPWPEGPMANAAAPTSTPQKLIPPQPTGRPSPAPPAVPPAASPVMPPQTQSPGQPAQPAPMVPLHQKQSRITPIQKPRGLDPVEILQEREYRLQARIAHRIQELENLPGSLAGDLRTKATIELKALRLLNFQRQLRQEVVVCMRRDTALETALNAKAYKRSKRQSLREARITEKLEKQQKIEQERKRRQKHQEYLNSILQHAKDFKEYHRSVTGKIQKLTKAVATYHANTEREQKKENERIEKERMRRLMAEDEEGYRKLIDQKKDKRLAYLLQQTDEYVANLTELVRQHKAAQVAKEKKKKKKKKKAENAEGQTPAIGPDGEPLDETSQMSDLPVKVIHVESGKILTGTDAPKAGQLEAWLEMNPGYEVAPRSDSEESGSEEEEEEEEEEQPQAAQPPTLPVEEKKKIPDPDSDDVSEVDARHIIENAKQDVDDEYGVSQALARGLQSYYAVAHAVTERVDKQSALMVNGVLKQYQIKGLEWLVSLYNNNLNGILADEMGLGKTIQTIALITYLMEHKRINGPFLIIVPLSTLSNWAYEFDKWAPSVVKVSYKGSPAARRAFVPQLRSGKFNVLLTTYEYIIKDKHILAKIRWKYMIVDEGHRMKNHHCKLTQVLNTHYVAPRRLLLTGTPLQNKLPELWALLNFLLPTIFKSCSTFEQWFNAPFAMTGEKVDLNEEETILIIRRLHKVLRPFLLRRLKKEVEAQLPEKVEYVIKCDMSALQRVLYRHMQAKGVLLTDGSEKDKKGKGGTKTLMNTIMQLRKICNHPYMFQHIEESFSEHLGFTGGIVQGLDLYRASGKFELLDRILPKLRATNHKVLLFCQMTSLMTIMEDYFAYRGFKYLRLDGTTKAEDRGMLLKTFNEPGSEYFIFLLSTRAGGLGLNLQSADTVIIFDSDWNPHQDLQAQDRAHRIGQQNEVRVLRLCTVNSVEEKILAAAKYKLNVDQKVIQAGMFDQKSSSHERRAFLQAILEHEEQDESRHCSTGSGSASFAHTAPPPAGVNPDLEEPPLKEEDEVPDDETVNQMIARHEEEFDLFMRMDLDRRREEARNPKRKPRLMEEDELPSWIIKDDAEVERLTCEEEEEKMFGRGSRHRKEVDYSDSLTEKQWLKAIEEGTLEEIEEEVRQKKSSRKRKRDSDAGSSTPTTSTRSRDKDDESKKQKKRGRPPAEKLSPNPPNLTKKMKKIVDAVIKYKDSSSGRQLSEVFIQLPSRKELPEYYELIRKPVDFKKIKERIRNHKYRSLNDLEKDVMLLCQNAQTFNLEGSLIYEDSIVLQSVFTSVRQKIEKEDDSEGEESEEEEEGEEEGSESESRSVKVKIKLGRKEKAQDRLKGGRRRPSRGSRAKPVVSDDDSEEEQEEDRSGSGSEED
SMILES,DC50 [1] [nM],BRM HiBit Degradation Maximum (%) [1],Dmax [2] [%],DC50 [2] [nM],BRG1 HiBit Degradation Maximum (%) [2]
Cc1ncsc1-c1ccc([C@H](C)NC(=O)[C@@H]2C[C@@H](O)CN2C(=O)[C@@H](c2cc(-c3cnc(N4CCC(c5ccc6nnc(-c7ccccc7O)cc6c5)CC4)nc3)no2)C(C)C)cc1 [Compound 42],> 10,A (“A” indicates maximum degradation ≥75%),< 50,–,–
Cc1ncsc1-c1ccc([C@H](C)NC(=O)[C@@H]2C[C@@H](O)CN2C(=O)[C@H](c2cc(-c3cnc(N4CC(c5ccc6nnc(-c7ccccc7O)cc6c5Cl)C4)nc3)no2)C(C)C)cc1 [Compound 43],> 100,A (“A” indicates maximum degradation ≥75%),< 50,–,–
Cc1ncsc1-c1ccc([C@H](C)NC(=O)[C@@H]2C[C@@H](O)CN2C(=O)[C@@H](c2cc(-c3cnc(N4CC(c5ccc6nnc(-c7ccccc7O)cc6c5Cl)C4)nc3)no2)C(C)C)cc1 [Compound 44],> 10,A (“A” indicates maximum degradation ≥75%),< 50,–,–
Cc1ncsc1-c1ccc([C@H](C)NC(=O)[C@@H]2C[C@@H](O)CN2C(=O)[C@@H](c2cc(N3CCC(C(=O)N4CC(c5ccc6cc(-c7ccccc7O)nnc6c5)C4)CC3)no2)C(C)C)cc1 [Compound 45],< 10,A (“A” indicates maximum degradation ≥75%),> 75,> 10,–
Cc1ncsc1-c1ccc([C@H](C)NC(=O)[C@@H]2C[C@@H](O)CN2C(=O)[C@H](c2cc(-c3cnc(N4CCN(c5ccc6cc(-c7ccccc7O)nnc6c5)CC4)nc3)no2)C(C)C)cc1 [Compound 46],> 100,A (“A” indicates maximum degradation ≥75%),–,–,C (“C” indicates maximum degradation <50%)
Cc1ncsc1-c1ccc([C@H](C)NC(=O)[C@@H]2C[C@@H](O)CN2C(=O)[C@@H](c2cc(-c3cnc(N4CCN(c5ccc6cc(-c7ccccc7O)nnc6c5)CC4)nc3)no2)C(C)C)cc1 [Compound 47],–,A (“A” indicates maximum degradation ≥75%),–,–,C (“C” indicates maximum degradation <50%)
"Cc1ncsc1-c1ccc([C@H](C)NC(=O)[C@@H]2C[C@@H](O)CN2C(=O)[C@@H](c2cc(N3CC4(CC(c5ccc6nnc(-c7ccccc7O)cc6c5)C4)C3)no2)C(C)C)cc1 [Compound 48, (2S,4R)-4-hydroxy-1-((R)-2-(3-(6-(3-(2-hydroxyphenyl)cinnolin-6-yl)-2-azaspiro[3.3]heptan-2-yl)isoxazol-5-yl)-3-methylbutanoyl)-N-((S)-1-(4-(4-methylthiazol-5-yl)phenyl)ethyl)pyrrolidine-2-carboxamide]",< 10,A (“A” indicates maximum degradation ≥75%),> 75,< 10,–
"Cc1ncsc1-c1ccc([C@H](C)NC(=O)[C@@H]2C[C@@H](O)CN2C(=O)[C@@H](c2cc(-c3cnc(N4CC[C@H](c5ccc6nnc(-c7ccccc7O)cc6c5)C4)nc3)no2)C(C)C)cc1 [Compound 49, (2S,4R)-4-hydroxy-1-((R)-2-(3-(2-((R)-3-(3-(2-hydroxyphenyl)cinnolin-6-yl)pyrrolidin-1-yl)pyrimidin-5-yl)isoxazol-5-yl)-3-methylbutanoyl)-N-((S)-1-(4-(4-methylthiazol-5-yl)phenyl)ethyl)pyrrolidine-2-carboxamide]",< 10,A (“A” indicates maximum degradation ≥75%),> 75,< 10,–
"Cc1ncsc1-c1ccc([C@H](C)NC(=O)[C@@H]2C[C@@H](O)CN2C(=O)[C@@H](c2cc(-c3cnc(N4CC[C@@H](c5ccc6nnc(-c7ccccc7O)cc6c5)C4)nc3)no2)C(C)C)cc1 [Compound 50, (2S,4R)-4-hydroxy-1-((R)-2-(3-(2-((S)-3-(3-(2-hydroxyphenyl)cinnolin-6-yl)pyrrolidin-1-yl)pyrimidin-5-yl)isoxazol-5-yl)-3-methylbutanoyl)-N-((S)-1-(4-(4-methylthiazol-5-yl)phenyl)ethyl)pyrrolidine-2-carboxamide]",< 10,A (“A” indicates maximum degradation ≥75%),> 50,–,–
"Cc1ncsc1-c1ccc([C@H](C)NC(=O)[C@@H]2C[C@@H](O)CN2C(=O)[C@@H](c2cc(-c3ccnc(N4CCC(c5ccc6cc(-c7ccccc7O)nnc6c5)CC4)n3)no2)C(C)C)cc1 [Compound 52, (2S,4R)-4-hydroxy-1-((R)-2-(3-(2-(4-(3-(2-hydroxyphenyl)cinnolin-7-yl)piperidin-1-yl)pyrimidin-4-yl)isoxazol-5-yl)-3-methylbutanoyl)-N-((S)-1-(4-(4-methylthiazol-5-yl)phenyl)ethyl)pyrrolidine-2-carboxamide]",< 10,A (“A” indicates maximum degradation ≥75%),> 75,> 10,–
"Cc1ncsc1-c1ccc([C@H](C)NC(=O)[C@@H]2C[C@@H](O)CN2C(=O)[C@@H](c2cc(N3CCC4(CC3)CN(c3ccc5cc(-c6ccccc6O)nnc5c3)C4)no2)C(C)C)cc1 [Compound 53, (2S,4R)-4-hydroxy-1-((R)-2-(3-(2-(3-(2-hydroxyphenyl)cinnolin-7-yl)-2,7-diazaspiro[3.5]nonan-7-yl)isoxazol-5-yl)-3-methylbutanoyl)-N-((S)-1-(4-(4-methylthiazol-5-yl)phenyl)ethyl)pyrrolidine-2-carboxamide]",< 10,A (“A” indicates maximum degradation ≥75%),> 50,> 10,–
"Cc1ncsc1-c1ccc([C@H](C)NC(=O)[C@@H]2C[C@@H](O)CN2C(=O)[C@@H](c2cc(N3CCN(c4ccc5cc(-c6ccccc6O)nnc5c4)CC3)no2)C(C)C)cc1 [Compound 54, (2S,4R)-4-hydroxy-1-((R)-2-(3-(4-(3-(2-hydroxyphenyl)cinnolin-7-yl)piperazin-1-yl)isoxazol-5-yl)-3-methylbutanoyl)-N-((S)-1-(4-(4-methylthiazol-5-yl)phenyl)ethyl)pyrrolidine-2-carboxamide]",> 10,B (“B” indicates maximum degradation ≥50%),< 50,–,–
"Cc1ncsc1-c1ccc([C@H](C)NC(=O)[C@@H]2C[C@@H](O)CN2C(=O)[C@@H](c2cc(N3CC[C@H](c4ccc5nnc(-c6ccccc6O)cc5c4)C3)no2)C(C)C)cc1 [Compound 55, (2S,4R)-4-hydroxy-1-((R)-2-(3-((R)-3-(3-(2-hydroxyphenyl)cinnolin-6-yl)pyrrolidin-1-yl)isoxazol-5-yl)-3-methylbutanoyl)-N-((S)-1-(4-(4-methylthiazol-5-yl)phenyl)ethyl)pyrrolidine-2-carboxamide]",> 10,B (“B” indicates maximum degradation ≥50%),< 50,–,–
"Cc1ncsc1-c1ccc([C@H](C)NC(=O)[C@@H]2C[C@@H](O)CN2C(=O)[C@@H](c2cc(-c3cnc(N4CCC5(CC4)CC(c4ccc6nnc(-c7ccccc7O)cc6c4)C5)nc3)no2)C(C)C)cc1 [Compound 56, (2S,4R)-4-hydroxy-1-((R)-2-(3-(2-(2-(3-(2-hydroxyphenyl)cinnolin-6-yl)-7-azaspiro[3.5]nonan-7-yl)pyrimidin-5-yl)isoxazol-5-yl)-3-methylbutanoyl)-N-((S)-1-(4-(4-methylthiazol-5-yl)phenyl)ethyl)pyrrolidine-2-carboxamide]",< 10,A (“A” indicates maximum degradation ≥75%),> 75,< 10,–
"Cc1ncsc1-c1ccc([C@H](C)NC(=O)[C@@H]2C[C@@H](O)CN2C(=O)[C@@H](c2cc(N3CCN(c4ccc5nnc(-c6ccccc6O)cc5c4)CC3)no2)C(C)C)cc1 [Compound 57, (2S,4R)-4-hydroxy-1-((R)-2-(3-(4-(3-(2-hydroxyphenyl)cinnolin-6-yl)piperazin-1-yl)isoxazol-5-yl)-3-methylbutanoyl)-N-((S)-1-(4-(4-methylthiazol-5-yl)phenyl)ethyl)pyrrolidine-2-carboxamide]",< 10,A (“A” indicates maximum degradation ≥75%),> 75,> 10,–
"Cc1ncsc1-c1ccc([C@H](C)NC(=O)[C@@H]2C[C@@H](O)CN2C(=O)[C@@H](c2cc(N3CC[C@@H](c4ccc5cc(-c6ccccc6O)nnc5c4)C3)no2)C(C)C)cc1 [Compound 58, (2S,4R)-4-hydroxy-1-((R)-2-(3-((S)-3-(3-(2-hydroxyphenyl)cinnolin-7-yl)pyrrolidin-1-yl)isoxazol-5-yl)-3-methylbutanoyl)-N-((S)-1-(4-(4-methylthiazol-5-yl)phenyl)ethyl)pyrrolidine-2-carboxamide]",< 10,A (“A” indicates maximum degradation ≥75%),< 50,–,–
"Cc1ncsc1-c1ccc([C@H](C)NC(=O)[C@@H]2C[C@@H](O)CN2C(=O)[C@@H](c2cc(N3C[C@@H]4[C@H](C3)[C@H]4c3ccc4cc(-c5ccccc5O)nnc4c3)no2)C(C)C)cc1 [Compound 59, (2S,4R)-4-hydroxy-1-((R)-2-(3-((1R,5S,6S)-6-(3-(2-hydroxyphenyl)cinnolin-7-yl)-3-azabicyclo[3.1.0]hexan-3-yl)isoxazol-5-yl)-3-methylbutanoyl)-N-((S)-1-(4-(4-methylthiazol-5-yl)phenyl)ethyl)pyrrolidine-2-carboxamide]",< 10,A (“A” indicates maximum degradation ≥75%),< 50,–,–
